Common to all, as to format: biochemical
The target in one test is T1, recombinant human VAP-1 (Homo sapiens, UniProt Q16853).
T1 construct: purchased R&D systems
T1 sequence (Q16853 1-763): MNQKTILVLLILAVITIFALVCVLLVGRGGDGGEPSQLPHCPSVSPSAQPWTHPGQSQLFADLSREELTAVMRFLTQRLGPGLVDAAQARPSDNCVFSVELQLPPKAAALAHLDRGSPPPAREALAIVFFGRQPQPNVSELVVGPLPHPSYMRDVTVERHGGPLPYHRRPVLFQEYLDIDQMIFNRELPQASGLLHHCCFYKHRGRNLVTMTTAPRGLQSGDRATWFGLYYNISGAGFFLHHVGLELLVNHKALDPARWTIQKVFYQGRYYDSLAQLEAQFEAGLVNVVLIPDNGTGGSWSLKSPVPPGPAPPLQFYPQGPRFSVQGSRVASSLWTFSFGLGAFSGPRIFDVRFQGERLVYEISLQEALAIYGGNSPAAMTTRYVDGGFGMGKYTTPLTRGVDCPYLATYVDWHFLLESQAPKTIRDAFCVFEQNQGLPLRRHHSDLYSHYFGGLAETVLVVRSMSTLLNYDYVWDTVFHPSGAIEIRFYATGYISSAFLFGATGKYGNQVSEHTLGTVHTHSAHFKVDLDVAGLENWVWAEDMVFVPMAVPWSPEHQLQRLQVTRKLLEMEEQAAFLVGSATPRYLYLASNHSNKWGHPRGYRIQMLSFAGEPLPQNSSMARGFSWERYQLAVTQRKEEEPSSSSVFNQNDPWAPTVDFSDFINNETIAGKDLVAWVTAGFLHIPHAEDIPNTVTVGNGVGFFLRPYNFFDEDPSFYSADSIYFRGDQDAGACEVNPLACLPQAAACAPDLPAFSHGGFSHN
The test is described as follows: Activity on recombinant human VAP-1, HRP-coupled Amplex Red hydrogen peroxide assay. As to conditions: substrate 1 mM benzylamine; compound incubated with enzyme at 37° C. for 30 minutes; pH 7.4; read-out: Inhibitory Activity (IC50, nM) human VAP-1. The gist of the method:
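8-point 1:3 dilutions, final DMSO <1%; 30 min enzyme preincubation, 37 °C, pH 7.4 phosphate. Start: 1 mM benzylamine + 200 uM Amplex Red + 1 U/mL HRP. Read ex544/em590 over 1-2 h; % rate decrease vs DMSO control, 4-parameter logistic IC50.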

Test [1] addresses T2, recombinant human MAO-A (monoamine oxidase-A) (Homo sapiens, UniProt P21397).
T2 construct: purchased Sigma-Aldrich
T2 sequence (P21397 1-527): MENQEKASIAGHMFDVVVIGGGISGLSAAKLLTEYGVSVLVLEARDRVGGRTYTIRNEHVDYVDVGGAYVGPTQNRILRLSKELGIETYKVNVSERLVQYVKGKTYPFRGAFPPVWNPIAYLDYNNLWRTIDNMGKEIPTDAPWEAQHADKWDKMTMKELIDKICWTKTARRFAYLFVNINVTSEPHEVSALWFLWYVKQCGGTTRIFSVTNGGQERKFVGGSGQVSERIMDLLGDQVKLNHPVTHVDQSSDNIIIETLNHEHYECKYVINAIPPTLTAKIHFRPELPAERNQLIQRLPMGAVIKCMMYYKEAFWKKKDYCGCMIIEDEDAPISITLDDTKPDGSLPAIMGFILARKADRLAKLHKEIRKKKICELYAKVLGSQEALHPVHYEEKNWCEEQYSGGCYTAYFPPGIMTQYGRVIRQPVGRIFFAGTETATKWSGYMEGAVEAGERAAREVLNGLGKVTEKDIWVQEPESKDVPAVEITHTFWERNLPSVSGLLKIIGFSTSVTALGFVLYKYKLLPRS
Nature of the test: Activity on recombinant human MAO-A, method similar to the VAP-1 assay. As to conditions: substrate 0.5 mM tyramine; read-out: Inhibitory Activity (IC50, nM) MAO-A. In a few lines: (§1)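 HRP-coupled Amplex Red H2O2 assay, 50 mM sodium phosphate pH 7.4; compounds (8-point 1:3 series, final DMSO <1%) preincubated with enzyme 30 min at 37° C, then 200 uM Amplex Red, 1 U/mL HRP and substrate (MAO-A 0.5 mM tyramine; MAO-B 1 mM benzylamine) added. Resorufin fluorescence (ex 544/em 590 nm) read over 1-2 h; IC50 from four-parameter logistic fit.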

For test [2], the target named is T3, recombinant human MAO-B (monoamine oxidase-B) (Homo sapiens, UniProt P27338).
T3 construct: purchased Sigma-Aldrich
T3 sequence (P27338 1-520): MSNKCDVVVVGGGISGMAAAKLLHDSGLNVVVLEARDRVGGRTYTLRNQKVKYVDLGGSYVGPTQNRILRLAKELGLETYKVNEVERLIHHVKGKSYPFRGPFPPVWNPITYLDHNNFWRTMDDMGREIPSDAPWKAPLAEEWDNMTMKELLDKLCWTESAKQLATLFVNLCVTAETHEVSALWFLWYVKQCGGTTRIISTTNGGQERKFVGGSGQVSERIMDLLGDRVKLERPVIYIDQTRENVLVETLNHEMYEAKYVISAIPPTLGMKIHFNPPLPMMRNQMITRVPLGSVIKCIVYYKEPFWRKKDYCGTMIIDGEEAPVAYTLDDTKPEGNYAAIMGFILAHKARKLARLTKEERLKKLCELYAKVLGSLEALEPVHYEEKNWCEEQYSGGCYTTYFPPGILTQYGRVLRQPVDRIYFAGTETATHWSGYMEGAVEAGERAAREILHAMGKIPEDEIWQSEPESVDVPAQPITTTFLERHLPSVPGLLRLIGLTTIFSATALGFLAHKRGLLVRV
Nature of the test: Activity on recombinant human MAO-B, method similar to the VAP-1 assay. As to conditions: substrate 1 mM benzylamine; read-out: Inhibitory Activity (IC50, nM) MAO-B. In a few lines: as §1

Test [3] deals with T4, recombinant human DAO (diamine oxidase) (Homo sapiens, UniProt P19801).
T4 construct: purchased R&D systems
T4 sequence (P19801 20-751): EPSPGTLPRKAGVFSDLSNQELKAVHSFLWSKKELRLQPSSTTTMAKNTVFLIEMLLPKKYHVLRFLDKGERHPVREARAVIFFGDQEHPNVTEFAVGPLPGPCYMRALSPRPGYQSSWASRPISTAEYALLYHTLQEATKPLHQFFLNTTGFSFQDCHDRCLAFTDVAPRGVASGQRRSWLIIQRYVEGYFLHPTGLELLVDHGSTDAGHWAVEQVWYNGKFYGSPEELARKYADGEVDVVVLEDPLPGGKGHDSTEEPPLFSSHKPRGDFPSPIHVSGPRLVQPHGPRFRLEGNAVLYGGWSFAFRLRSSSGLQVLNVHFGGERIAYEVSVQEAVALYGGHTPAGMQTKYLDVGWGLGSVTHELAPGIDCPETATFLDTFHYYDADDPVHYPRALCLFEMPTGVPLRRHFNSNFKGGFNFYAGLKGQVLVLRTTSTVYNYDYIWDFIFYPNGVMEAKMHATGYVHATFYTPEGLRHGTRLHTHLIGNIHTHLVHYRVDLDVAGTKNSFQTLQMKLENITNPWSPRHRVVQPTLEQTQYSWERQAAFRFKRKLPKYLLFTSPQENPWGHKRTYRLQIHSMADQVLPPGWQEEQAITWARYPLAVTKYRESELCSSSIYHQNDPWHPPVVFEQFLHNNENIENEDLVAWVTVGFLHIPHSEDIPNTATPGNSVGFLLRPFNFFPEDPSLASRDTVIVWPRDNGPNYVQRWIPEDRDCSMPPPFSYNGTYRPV
The test is described as follows: Activity on recombinant human DAO, method similar to the VAP-1 assay. As to conditions: substrate 1 mM putrescine; read-out: Inhibitory Activity (IC50, nM) DAO. In a few lines: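 Inhibition of recombinant human diamine oxidase (DAO, R&D systems) was assessed by the same approach as the VAP-1 assay, using 1 mM putrescine as substrate. Hydrogen peroxide formed was detected through an HRP-coupled Amplex Red reaction yielding fluorescent resorufin, read at 544 nm excitation and 590 nm emission. IC50 values came from four-parameter logistic fitting in GraphPad Prism.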

Where a name gives a salt, the structure may show the parent alone.

As to `CC(=O)N1CC=C(c2ccc(Cn3cnn(C/C(=C/F)CN)c3=O)s2)CC1` [Example 59, 4-[[5-(1-acetyl-3,6-dihydro-2H-pyridin-4-yl)-2-thienyl]methyl]-2-[(E)-2-(aminomethyl)-3-fluoro-allyl]-1,2,4-triazol-3-one], the concentration for half-maximal inhibition (IC50) (in general, the point on the concentration scale where inhibition reaches its midpoint) at recombinant human VAP-1 is 0.5 nM; in test [1], > 100000 nM; in test [2] it was 990 nM; in test [3], 1300 nM.
For the compound `NC/C(=C\F)Cn1ncn(Cc2ccc(/C=C/c3cccc(F)c3)s2)c1=O` [Example 118, 2-[(2E)-2-(aminomethyl)-3-fluoroprop-2-en-1-yl]-4-(5-[(E)-2-(3-fluorophenyl)ethenyl]thiophen-2-ylmethyl)-2,4-dihydro-3H-1,2,4-triazol-3-one hydrochloride], the IC50 on recombinant human VAP-1 amounted to 1.1 nM; in test [1], 140000 nM; in test [2], 58 nM; in test [3], 560 nM.
For the compound `NC/C(=C\F)Cn1ncn(Cc2ccc(-c3ccc4c(c3)CNC4=O)s2)c1=O` [Example 68, 5-[5-(1-[(2E)-2-(aminomethyl)-3-fluoroprop-2-en-1-yl]-5-oxo-1,5-dihydro-4H-1,2,4-triazol-4-ylmethyl)thiophen-2-yl]-2,3-dihydro-1H-isoindol-1-one hydrochloride], the IC50 was 0.4 nM at recombinant human VAP-1, > 100000 nM in test [1], 1600 nM in test [2] and 1000 nM in test [3].
Regarding `NC/C(=C\F)Cn1ncn(Cc2ccc(-c3ccc4c(c3F)NCCO4)s2)c1=O` [Example 106, 2-[(E)-2-(aminomethyl)-3-fluoro-allyl]-4-[[5-(5-fluoro-3,4-dihydro-2H-1,4-benzoxazin-6-yl)-2-thienyl]methyl]-1,2,4-triazol-3-one], the IC50 at recombinant human VAP-1 is 0.8 nM; in test [1], 11000 nM; in test [2] it was 250 nM; in test [3], 2500 nM.
For `Cc1cc(-c2ccc(Cn3cnn(C/C(=C/F)CN)c3=O)s2)cnc1N1CCOCC1` [Example 172, 2-[(2E)-2-(aminomethyl)-3-fluoroprop-2-en-1-yl]-4-({5-[5-methyl-6-(morpholin-4-yl)pyridin-3-yl]thiophen-2-yl}methyl)-2,4-dihydro-3H-1,2,4-triazol-3-one] the same measures were 2.8 nM, > 100000 nM, 3900 nM and 490 nM.
For `CN(C)c1ccc(-c2ccc3sc(Cn4cnn(C/C(=C/F)CN)c4=O)cc3c2)cn1` [Example 212, 2-[(2E)-2-(aminomethyl)-3-fluoroprop-2-en-1-yl]-4-({5-[6-(dimethylamino)pyridin-3-yl]-1-benzothiophen-2-yl}methyl)-2,4-dihydro-3H-1,2,4-triazol-3-one] the same measures were 2.3 nM, 37000 nM, 4900 nM and 77000 nM.
For `NC/C(=C\F)Cn1ncn(Cc2cc3cc(-c4ccc5c(c4)OCO5)ccc3s2)c1=O` [Example 207, 2-[(2E)-2-(aminomethyl)-3-fluoroprop-2-en-1-yl]-4-{[5-(1,3-benzodioxol-5-yl)-1-benzothiophen-2-yl]methyl}-2,4-dihydro-3H-1,2,4-triazol-3-one] the same measures were 3.8 nM, > 100000 nM, 64 nM and 2800 nM.
Regarding `Cc1c(-c2ccc(Cn3cnn(C/C(=C/F)CN)c3=O)s2)ccc2c1NC(=O)CO2` [Example 92, 6-[5-[[1-[(E)-2-(aminomethyl)-3-fluoro-allyl]-5-oxo-1,2,4-triazol-4-yl]methyl]-2-thienyl]-5-methyl-4H-1,4-benzoxazin-3-one hydrochloride], the 50% inhibitory concentration (IC50) at recombinant human VAP-1 came out at 0.2 nM; in test [1], 29000 nM; in test [2], 600 nM; in test [3], 350 nM.

The values are drawn from patent US11780830B2, “Triazolone derivatives or salts thereof and pharmaceutical compositions comprising the same” (YUHAN CORPORATION, priority 2018, dated 2023).
